Assay results from ChEMBL document CHEMBL1122820, “Purine and 8-substituted purine arabinofuranosyl and ribofuranosyl nucleoside derivatives as potential inducers of the differentiation of the Friend erythroleukemia” (1985).

How the values were obtained:
[1] = test system: Erythroleukemia cell line; assay: Percent benzidine-positive cell differentiation in friend erythroleukemia cells; assay type: functional, Mus musculus
[2] = test system: Erythroleukemia cell line; assay: Percent benzidine-positive cells in friend erythroleukemia cells was evaluated (deoxy-coformycin added at 25 uM); assay type: functional, Mus musculus
[3] = test system: Erythroleukemia cell line; assay: Compound was evaluated for the inhibition of Cellular Replication (deoxy-coformycin added at 25 uM); assay type: functional; conditions: Mus musculus, read-out: ID50 (the source's name)
[4] = test system: Erythroleukemia cell line; assay: Inhibition of Cellular Replication of friend erythroleukemia cells; assay type: functional; conditions: Mus musculus, read-out: ID50 (the source's name)
[5] = test system: Erythroleukemia cell line; assay: Optimum concentration for the extent of differentiation of friend erythroleukemia cells was evaluated.(deoxy-coformycin added at 25 uM); assay type: functional, Mus musculus
[6] = test system: Erythroleukemia cell line; assay: Optimum concentration for differentiation of friend erythroleukemia cells; assay type: functional, Mus musculus
[7] = test system: Erythroleukemia cell line; assay: Percent benzidine-positive cell differentiation of friend erythroleukemia cells was evaluated.(deoxy-coformycin added at 25 uM); assay type: functional, Mus musculus
[8] = test system: Erythroleukemia cell line; assay: Percent benzidine-positive cell differentiation of friend erythroleukemia cells was evaluated (deoxy-coformycin added at 25 uM); assay type: functional, Mus musculus

Row | Structure (SMILES) | IC50 [3] [µM] | IC50 [4] [µM] | Differentiation [1] [%] | Differentiation [2] [%] | Optimal concentration [5] [mM] | Optimal concentration [6] [mM] | Differentiation [7] [%] | Differentiation [8] [%]
1 | Nc1ncnc2c1nc(Br)n2[C@@H]1O[C@H](CO)[C@@H](O)[C@H]1O | > 1000 | > 1000 | 1 | 1 | 1 | 1 | – | –
2 | [N-]=[N+]=Nc1nc2c(O)ncnc2n1[C@@H]1O[C@H](CO)[C@@H](O)[C@@H]1O | – | 860 | 20 | – | – | 0.5 | – | –
3 | Nc1nc2c(O)ncnc2n1[C@@H]1O[C@H](CO)[C@@H](O)[C@H]1O | – | 52 | 1 | – | – | 0.025 | – | –
4 | Nc1nc2c(O)ncnc2n1[C@@H]1O[C@H](CO)[C@@H](O)[C@@H]1O | – | > 5000 | 6 | – | – | 4 | – | –
5 | [N-]=[N+]=Nc1nc2c(O)ncnc2n1[C@@H]1O[C@H](CO)[C@@H](O)[C@H]1O | – | 720 | 30 | – | – | 1 | – | –
6 | OC[C@H]1O[C@@H](n2c(Br)nc3c(O)ncnc32)[C@@H](O)[C@@H]1O | – | > 2500 | 1 | – | – | 4 | – | –
7 | CN(C)c1nc2c(O)ncnc2n1[C@@H]1O[C@H](CO)[C@@H](O)[C@@H]1O | – | > 8000 | 2 | – | – | 8 | – | –
8 | Nc1ncnc2c1nc(Br)n2[C@@H]1O[C@H](CO)[C@@H](O)[C@@H]1O | 850 | 1600 | 1 | – | 0.8 | 1.6 | 2 | –
9 | OC[C@H]1O[C@@H](n2c(Br)nc3c(O)ncnc32)[C@H](O)[C@@H]1O | – | > 5000 | 1 | – | – | 5 | – | –
10 | CN(C)c1nc2c(O)ncnc2n1[C@@H]1O[C@H](CO)[C@@H](O)[C@H]1O | – | > 8000 | 3 | – | – | 8 | – | –
11 | [N-]=[N+]=N[C@H]1[C@H](O)[C@@H](CO)O[C@H]1n1cnc2c(O)ncnc21 | – | 6000 | 40 | – | – | 2 | – | –
12 | OC[C@H]1OC(n2c(S)nc3c(O)ncnc32)[C@H](O)[C@@H]1O (stereo partly specified) | – | > 4000 | 1 | – | – | 4 | – | –
13 | O=c1[nH]c(=O)c2nc(O)n(C3O[C@H](CO)[C@@H](O)[C@H]3O)c2[nH]1 (stereo partly specified) | – | > 7000 | 3 | – | – | 7 | – | –
14 | O=c1[nH]c(=O)c2nc(Br)n(C3O[C@H](CO)[C@@H](O)[C@H]3O)c2[nH]1 (stereo partly specified) | – | > 7000 | 1 | – | – | 7 | – | –
15 | O=c1[nH]c(=O)c2nc(OCc3ccccc3)n(C3O[C@H](CO)[C@@H](O)[C@H]3O)c2[nH]1 (stereo partly specified) | – | > 7000 | 6 | – | – | 7 | – | –
16 | C[S+](C)[O-] [DIMETHYL SULFOXIDE] | – | – | 70 | – | – | 200 | – | –
17 | O=c1[nH]cnc2c1ncn2[C@@H]1O[C@H](CO)[C@@H](O)[C@H]1O [INOSINE] | – | > 7000 | 12 | – | – | 7 | – | –
18 | OC[C@H]1O[C@@H](n2cnc3c(O)nc(O)nc32)[C@H](O)[C@@H]1O [XANTHOSINE] | – | > 7000 | – | – | – | 7 | – | –

The next lines start with results.

Row | IC50 [3] [µM] | IC50 [4] [µM] | Structure (SMILES) | Differentiation [1] [%] | Differentiation [2] [%] | Optimal concentration [5] [mM] | Optimal concentration [6] [mM] | Differentiation [7] [%] | Differentiation [8] [%]
19 | – | 600 | OC[C@H]1O[C@@H](n2cnc3c(O)ncnc32)[C@@H](O)[C@@H]1O | 82 | – | – | 0.2 | – | –
20 | – | > 3000 | CSc1ncnc2c1ncn2[C@@H]1O[C@H](CO)[C@@H](O)[C@@H]1O | 49 | – | – | 1.5 | – | –
21 | – | 110 | OC[C@H]1O[C@@H](n2cnc3c(S)ncnc32)[C@@H](O)[C@@H]1O | 56 | – | – | 0.02 | – | –
22 | 69 | 540 | OC[C@H]1O[C@@H](n2cnc3c(NO)ncnc32)[C@@H](O)[C@@H]1O | 74 | 20 | 0.04 | 0.2 | – | –
23 | – | 7 | CSc1ncnc2c1ncn2[C@@H]1O[C@H](CO)[C@@H](O)[C@H]1O | 51 | – | – | 0.005 | – | –
24 | 50 | > 4000 | Nc1ncnc2c1ncn2[C@@H]1O[C@H](CO)[C@@H](O)[C@H]1O [ADENOSINE] | 3 | – | 0.04 | 4 | – | 2
25 | – | > 2000 | OC[C@H]1O[C@@H](n2cnc3c(S)ncnc32)[C@H](O)[C@@H]1O [THIOINOSINE] | 51 | – | – | 1 | – | –
26 | 3 | 94 | Nc1ncnc2c1ncn2[C@@H]1O[C@H](CO)[C@@H](O)[C@@H]1O [VIDARABINE] | 4 | – | 0.002 | 0.08 | – | 22
